The source made the active and inactive calls.
Assays:
[1] = target: T1, Short transient receptor potential channel 4 (Mus musculus, UniProt Q9QUQ5); test: mouse TRPC4 channel activators, dose response, cell-based, HEK293 TRPC4/mu-opioid, Fluo-4 calcium (AID 434937); type: functional
T1 sequence (Q9QUQ5 whole entry): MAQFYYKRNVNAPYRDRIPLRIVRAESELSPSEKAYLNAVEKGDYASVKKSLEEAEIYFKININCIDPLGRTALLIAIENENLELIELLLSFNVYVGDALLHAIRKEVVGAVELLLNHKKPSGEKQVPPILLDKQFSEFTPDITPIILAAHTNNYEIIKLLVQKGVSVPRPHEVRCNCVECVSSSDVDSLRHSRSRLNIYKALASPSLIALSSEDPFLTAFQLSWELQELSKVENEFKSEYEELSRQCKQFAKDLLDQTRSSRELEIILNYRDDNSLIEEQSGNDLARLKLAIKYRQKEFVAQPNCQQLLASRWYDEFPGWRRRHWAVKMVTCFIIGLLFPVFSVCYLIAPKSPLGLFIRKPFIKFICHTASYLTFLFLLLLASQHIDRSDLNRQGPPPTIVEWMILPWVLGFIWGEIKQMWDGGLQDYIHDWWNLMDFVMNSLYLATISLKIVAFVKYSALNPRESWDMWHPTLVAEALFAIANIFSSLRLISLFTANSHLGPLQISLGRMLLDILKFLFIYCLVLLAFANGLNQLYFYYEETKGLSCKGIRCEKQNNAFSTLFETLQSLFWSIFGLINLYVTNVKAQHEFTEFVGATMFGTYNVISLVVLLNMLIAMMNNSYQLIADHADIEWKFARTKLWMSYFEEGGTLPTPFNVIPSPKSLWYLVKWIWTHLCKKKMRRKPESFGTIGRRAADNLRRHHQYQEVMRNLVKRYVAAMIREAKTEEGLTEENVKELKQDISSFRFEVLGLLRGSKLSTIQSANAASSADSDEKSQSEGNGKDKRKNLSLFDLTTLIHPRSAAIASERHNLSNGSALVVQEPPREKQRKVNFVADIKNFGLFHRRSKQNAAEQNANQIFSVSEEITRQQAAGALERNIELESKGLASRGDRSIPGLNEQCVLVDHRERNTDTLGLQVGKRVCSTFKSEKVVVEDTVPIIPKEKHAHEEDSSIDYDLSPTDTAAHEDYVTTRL

Leucine aminopeptidase = target: T2, Leucine aminopeptidase (Plasmodium falciparum 3D7, UniProt Q8IL11); test: P. falciparum M17LAP inhibitors, primary screen, biochemical, fluorogenic H-Leu-NHMec substrate, 1536-well (AID 1619); type: functional
T2 sequence (Q8IL11 whole entry): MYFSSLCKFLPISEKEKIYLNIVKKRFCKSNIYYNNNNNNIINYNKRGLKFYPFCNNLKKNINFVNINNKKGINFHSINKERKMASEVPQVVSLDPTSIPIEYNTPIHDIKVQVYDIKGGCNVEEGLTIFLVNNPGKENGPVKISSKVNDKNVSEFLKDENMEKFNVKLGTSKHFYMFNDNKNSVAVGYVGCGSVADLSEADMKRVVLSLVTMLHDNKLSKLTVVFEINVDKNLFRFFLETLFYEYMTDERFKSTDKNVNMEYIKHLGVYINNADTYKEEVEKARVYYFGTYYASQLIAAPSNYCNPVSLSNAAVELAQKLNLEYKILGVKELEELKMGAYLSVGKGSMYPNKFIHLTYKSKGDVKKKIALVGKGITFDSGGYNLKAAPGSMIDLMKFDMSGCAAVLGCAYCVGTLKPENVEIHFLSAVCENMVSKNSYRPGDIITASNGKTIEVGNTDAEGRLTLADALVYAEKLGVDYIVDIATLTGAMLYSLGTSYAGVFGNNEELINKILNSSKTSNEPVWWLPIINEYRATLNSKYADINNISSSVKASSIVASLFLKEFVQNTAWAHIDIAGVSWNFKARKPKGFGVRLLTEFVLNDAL

[2] = target: G-protein coupled receptor 55 (Homo sapiens, UniProt Q9Y2T6); test: GPR55 antagonists blocking LPI-driven arrestin recruitment, primary screen, imaging, U2OS, beta-arrestin-GFP, LPI agonist (AID 2013); type: functional;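 note: antagonist potency measured as reduced agonist-driven arrestin aggregation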
Sequence of G-protein coupled receptor 55 (Q9Y2T6 whole entry): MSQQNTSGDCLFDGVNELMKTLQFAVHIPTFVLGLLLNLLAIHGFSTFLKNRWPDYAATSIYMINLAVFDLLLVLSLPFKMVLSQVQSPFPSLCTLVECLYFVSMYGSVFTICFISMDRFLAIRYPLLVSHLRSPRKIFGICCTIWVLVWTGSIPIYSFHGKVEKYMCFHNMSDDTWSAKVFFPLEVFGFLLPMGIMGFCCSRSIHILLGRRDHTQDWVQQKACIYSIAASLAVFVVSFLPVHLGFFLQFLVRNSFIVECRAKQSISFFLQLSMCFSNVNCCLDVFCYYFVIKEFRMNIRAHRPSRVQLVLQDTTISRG

HEK293 [3] = test: NOD1 signaling inhibitors, primary screen, cell-based, luminescence, uHTS (AID 1578); type: functional; conditions: Homo sapiens
HEK293 [4] = test: cells; type: functional, cell-based; conditions: Homo sapiens
HEK293 [5] = test: cells; type: functional, cell-based; conditions: Homo sapiens; remark: listed apart in the source
HEK293 [6] = test: NOD2 signaling inhibitors in MDP-stimulated cells, cell-based, uHTS, luminescence (AID 2001); type: functional; conditions: Homo sapiens
[7] = target: DNA dC->dU-editing enzyme APOBEC-3A (Homo sapiens, UniProt P31941); test: APOBEC3A DNA deaminase inhibitors, dose response, biochemical (AID 504722); type: functional
Sequence of DNA dC->dU-editing enzyme APOBEC-3A (P31941 whole entry): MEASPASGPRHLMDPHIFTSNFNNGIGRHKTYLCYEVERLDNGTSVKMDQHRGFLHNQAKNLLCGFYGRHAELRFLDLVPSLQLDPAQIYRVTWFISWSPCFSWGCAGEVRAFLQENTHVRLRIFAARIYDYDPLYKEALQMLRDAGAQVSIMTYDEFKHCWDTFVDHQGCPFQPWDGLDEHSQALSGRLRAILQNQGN

[8] = target: DNA dC->dU-editing enzyme APOBEC-3G (Homo sapiens, UniProt Q9HC16); test: Dose Response confirmation of small molecule APOBEC3G DNA Deaminase Inhibitors via a fluorescence-based single-stranded DNA deaminase assay. [Related pubchem assays (depositor defined):AID493012, AID493028]; type: functional
Sequence of DNA dC->dU-editing enzyme APOBEC-3G (Q9HC16 whole entry): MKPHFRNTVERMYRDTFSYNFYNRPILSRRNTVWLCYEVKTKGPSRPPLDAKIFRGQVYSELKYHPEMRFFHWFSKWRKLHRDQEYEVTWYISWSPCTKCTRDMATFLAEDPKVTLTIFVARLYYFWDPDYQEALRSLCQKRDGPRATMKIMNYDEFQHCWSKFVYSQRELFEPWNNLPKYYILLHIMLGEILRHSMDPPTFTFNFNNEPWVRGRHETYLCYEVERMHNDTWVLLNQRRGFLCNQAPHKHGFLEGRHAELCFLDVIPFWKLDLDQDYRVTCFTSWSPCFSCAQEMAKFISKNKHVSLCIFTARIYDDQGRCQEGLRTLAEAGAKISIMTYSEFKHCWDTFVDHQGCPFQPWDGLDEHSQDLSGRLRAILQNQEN

[9] = target: T3, Rac GTPase-activating protein 1 (Homo sapiens, UniProt Q9H0H5); test: MgcRacGAP GTPase-activating activity inhibitors, confirmation, biochemical, ADP Hunter fluorescence, primary and confirmatory (AID 624330); type: functional
T3 sequence (Q9H0H5 whole entry): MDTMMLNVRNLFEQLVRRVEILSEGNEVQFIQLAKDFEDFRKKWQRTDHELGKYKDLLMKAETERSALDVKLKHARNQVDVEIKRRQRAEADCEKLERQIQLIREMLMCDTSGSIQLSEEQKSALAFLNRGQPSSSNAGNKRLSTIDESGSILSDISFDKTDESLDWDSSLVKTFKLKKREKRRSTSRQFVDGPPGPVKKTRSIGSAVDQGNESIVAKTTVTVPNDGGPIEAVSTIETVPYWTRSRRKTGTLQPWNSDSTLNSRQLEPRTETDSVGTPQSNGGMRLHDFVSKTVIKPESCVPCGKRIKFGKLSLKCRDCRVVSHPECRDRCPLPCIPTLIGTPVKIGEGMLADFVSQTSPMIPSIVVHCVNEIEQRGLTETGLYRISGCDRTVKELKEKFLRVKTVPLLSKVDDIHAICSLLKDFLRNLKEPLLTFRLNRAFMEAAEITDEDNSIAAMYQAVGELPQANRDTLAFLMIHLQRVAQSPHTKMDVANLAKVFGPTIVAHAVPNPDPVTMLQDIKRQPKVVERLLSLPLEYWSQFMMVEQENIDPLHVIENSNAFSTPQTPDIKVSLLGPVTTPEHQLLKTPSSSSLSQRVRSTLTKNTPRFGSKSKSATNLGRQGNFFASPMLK

[10] = target: Glucose-6-phosphate 1-dehydrogenase (Homo sapiens, UniProt P11413); test: human G6PD enzyme inhibitors, dose response, selectivity assay for P. falciparum G6PD inhibitor project, biochemical, fluorescence (AID 504792); type: functional
Sequence of Glucose-6-phosphate 1-dehydrogenase (P11413 whole entry): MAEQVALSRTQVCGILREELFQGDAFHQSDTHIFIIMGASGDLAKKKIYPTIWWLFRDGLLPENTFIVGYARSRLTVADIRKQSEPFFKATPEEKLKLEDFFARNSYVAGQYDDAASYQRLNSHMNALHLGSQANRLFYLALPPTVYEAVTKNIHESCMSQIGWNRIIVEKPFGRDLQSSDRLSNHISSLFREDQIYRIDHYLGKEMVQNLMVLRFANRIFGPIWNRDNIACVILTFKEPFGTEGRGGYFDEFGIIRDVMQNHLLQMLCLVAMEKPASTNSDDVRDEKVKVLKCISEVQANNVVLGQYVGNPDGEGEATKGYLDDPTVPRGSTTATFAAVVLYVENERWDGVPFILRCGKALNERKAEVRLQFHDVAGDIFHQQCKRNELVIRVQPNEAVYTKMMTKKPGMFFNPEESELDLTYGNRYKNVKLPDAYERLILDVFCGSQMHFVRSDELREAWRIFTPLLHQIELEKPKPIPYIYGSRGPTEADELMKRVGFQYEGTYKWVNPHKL

[11] = target: T4, Replicative DNA helicase DnaB (Mycobacterium tuberculosis, UniProt P9WMR3); test: DnaB intein splicing inhibitors, dose response, biochemical, cell-free fluorescence (AID 449749); type: functional
T4 sequence (P9WMR3 whole entry): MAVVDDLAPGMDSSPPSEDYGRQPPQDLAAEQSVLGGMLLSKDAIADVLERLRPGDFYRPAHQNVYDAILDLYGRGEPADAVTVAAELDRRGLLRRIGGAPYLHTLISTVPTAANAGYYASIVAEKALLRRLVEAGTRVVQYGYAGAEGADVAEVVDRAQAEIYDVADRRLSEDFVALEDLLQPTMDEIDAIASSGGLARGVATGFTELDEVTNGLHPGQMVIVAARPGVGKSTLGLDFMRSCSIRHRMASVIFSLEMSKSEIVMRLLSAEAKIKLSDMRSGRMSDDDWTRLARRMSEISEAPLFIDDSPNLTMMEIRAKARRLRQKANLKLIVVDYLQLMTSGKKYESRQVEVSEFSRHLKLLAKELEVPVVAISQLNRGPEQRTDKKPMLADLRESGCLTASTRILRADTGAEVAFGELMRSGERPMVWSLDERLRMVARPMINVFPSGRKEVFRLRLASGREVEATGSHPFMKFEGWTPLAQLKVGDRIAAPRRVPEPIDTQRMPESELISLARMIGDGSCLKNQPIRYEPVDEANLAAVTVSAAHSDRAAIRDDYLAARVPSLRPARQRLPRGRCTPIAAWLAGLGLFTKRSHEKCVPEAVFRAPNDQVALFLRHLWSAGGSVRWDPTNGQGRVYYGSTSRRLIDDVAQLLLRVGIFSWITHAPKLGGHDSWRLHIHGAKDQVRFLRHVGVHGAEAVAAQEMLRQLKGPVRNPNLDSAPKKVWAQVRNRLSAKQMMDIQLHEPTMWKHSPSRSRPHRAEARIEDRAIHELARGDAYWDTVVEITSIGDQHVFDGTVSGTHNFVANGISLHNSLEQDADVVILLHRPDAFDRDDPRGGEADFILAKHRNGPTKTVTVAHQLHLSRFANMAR

Protein RecA = target: T5, Protein RecA (Mycobacterium tuberculosis, UniProt P9WHJ3); test: Fluorescence Cell-Free Homogeneous Dose Retest to Identify Inhibitors of RecA-Intein Splicing Activity. [Related pubchem assays (depositor defined):AID2097, AID2223, AID489010, AID492950]; type: functional
T5 sequence (P9WHJ3 whole entry): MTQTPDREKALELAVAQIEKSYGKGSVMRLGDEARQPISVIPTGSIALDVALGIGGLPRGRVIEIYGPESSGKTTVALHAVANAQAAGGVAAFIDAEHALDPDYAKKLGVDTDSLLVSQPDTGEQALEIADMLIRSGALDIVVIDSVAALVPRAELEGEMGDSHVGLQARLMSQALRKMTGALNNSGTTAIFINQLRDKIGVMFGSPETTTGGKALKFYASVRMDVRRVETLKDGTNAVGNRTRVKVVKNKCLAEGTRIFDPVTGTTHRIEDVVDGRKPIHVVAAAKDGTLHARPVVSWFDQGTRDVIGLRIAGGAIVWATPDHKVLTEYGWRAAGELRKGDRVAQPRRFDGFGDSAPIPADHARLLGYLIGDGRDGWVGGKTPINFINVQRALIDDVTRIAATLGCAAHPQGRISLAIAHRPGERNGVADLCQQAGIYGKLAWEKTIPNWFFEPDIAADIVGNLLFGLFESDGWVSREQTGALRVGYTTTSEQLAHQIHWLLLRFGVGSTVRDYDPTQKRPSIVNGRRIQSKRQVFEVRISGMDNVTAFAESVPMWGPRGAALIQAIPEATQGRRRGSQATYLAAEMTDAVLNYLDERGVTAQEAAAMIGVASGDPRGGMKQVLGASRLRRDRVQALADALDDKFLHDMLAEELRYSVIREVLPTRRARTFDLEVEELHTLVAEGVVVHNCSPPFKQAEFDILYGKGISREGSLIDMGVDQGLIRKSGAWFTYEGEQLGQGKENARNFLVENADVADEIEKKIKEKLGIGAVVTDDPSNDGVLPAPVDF

[12] = target: FAD-linked sulfhydryl oxidase ALR (Homo sapiens, UniProt P55789); test: inhibitors of human ALR sulfhydryl oxidase, dose response, biochemical, H2O2 detection, luminescence, cherry-pick (AID 493248)
Sequence of FAD-linked sulfhydryl oxidase ALR (P55789 whole entry): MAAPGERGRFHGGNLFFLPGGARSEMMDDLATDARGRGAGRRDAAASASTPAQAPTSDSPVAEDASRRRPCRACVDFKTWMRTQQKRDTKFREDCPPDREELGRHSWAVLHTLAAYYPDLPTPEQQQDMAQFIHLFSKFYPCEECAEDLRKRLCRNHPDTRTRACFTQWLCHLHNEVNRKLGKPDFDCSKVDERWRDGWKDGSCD

CC(C)(C)c1cc(Cl)ccc1OCCn1ccnc1
EC50 [1]: 5.96 µM (active)

NCCCNC(=O)c1cc2ccccc2[nH]1
EC50 [1]: 7.5 µM (active)

CCc1nnc(NS(=O)(=O)c2ccc(NC(=O)/C=C/c3ccc(OC)cc3OC)cc2)s1
IC50 (Leucine aminopeptidase): 7.96 µM (active)
IC50 [2]: 1.44 µM (active)

Oc1nc(CCl)nc2cc(-c3ccc(F)cc3)sc12
EC50 (HEK293 [3]): 13.1 µM (active)
IC50 (HEK293 [4]): 12.6 µM (active)
IC50 (HEK293 [5]): > 20 µM (inactive)
IC50 (HEK293 [6]): 15.2 µM (inactive)

COC(=O)c1ccccc1NC(=S)NC(NC(=O)c1ccco1)C(Cl)(Cl)Cl (stereo unspecified)
IC50 [2]: 8.08 µM (active)

Cn1c(=O)c2ccccc2n2c(S)nnc12
IC50 [7]: > 100 µM (inactive)
IC50 [8]: 3.8 µM (active)
IC50 [9]: 19.9 µM (active)

O=S(=O)(Nc1c(O)ccc2ccccc12)c1ccccc1
IC50 [10]: 29.9 µM (inactive)
AC50 [11]: 5.09 µM (active)
EC50 (Protein RecA): 1.51 µM (active)

COc1ccc(/C=N/n2c(S)nnc2-c2[nH]nc3c2CCC3)c(OC)c1OC
IC50 [7]: > 100 µM (inactive)
IC50 [8]: 4.64 µM (active)
IC50 [9]: 69.9 µM (active)

Sc1nnc(C2CCCCC2)n1/N=C/c1ccccn1
IC50 [7]: > 100 µM (inactive)
IC50 [8]: 2.23 µM (active)
AC50 [12]: 1.04 µM (active)
